In US7919625B2, “4-anilino-3-quinolinecarbonitriles for the treatment of chronic myelogenous leukemia (CML)” (Wyeth LLC, priority 2003, dated 2011):
Blank lines part the entries; values can stand above or below the molecule they belong to.

How the values were obtained:
[1] = molecular target: T1, Src (Homo sapiens, UniProt P12931); assay: Src kinase assay, ELISA format
[2] = tested on: KU812 cells; assay: Inhibition of CML cell proliferation, KU812; assay type: cell-based; conditions: Homo sapiens
Procedure: (§1) • A. Inhibition of v-Abl-dependent proliferation. Rat 2 cells infected with Abl-murine leukemia virus were grown and treated as described for the Src cell assay. All measurements were identical except for the cell type that Cell-Titer Glo (Promega) was used to monitor relative cell number. In this case, the reagent was used as recommended by the manufacturer and luminescence was measured on a Wallac Victor plate reader. • B. Inhibition of CML cell proliferation. KU812 and K562 cells were grown in RPMI1640 medium supplemented with 10% fetal calf serum and glutamine with 50 μg/ml gentamicin. Cells were plated at 1000-2000 cells per well on Day 0. On Day 1, compound was added such that the final DMSO concentration was no greater than 0.1%. On Day 4, Cell-Titer Glo was added according to manufacturer specifications and luminescence was determined on a Wallac Victor plate reader.

[3] = tested on: Rat 2 cells infected with Abl-murine leukemia virus; assay: Inhibition of v-Abl-dependent proliferation; assay type: cell-based; conditions: Rat2
Procedure: Ultra-low cluster plates (Corning Costar, Acton, Mass.) are seeded with 10,000 cells per well on day 1. Alternatively, Ultra-low cluster plates (Costar 3474) treated with Sigmacote (Sigma, St. Louis, Mo.), rinsed with 70% ethanol, after drying in the hood, are seeded with 5000 cells.
Alternatively relative cell numbers were determined by the CellTiter-Glo™ (Promega) method. All procedures were identical except that cell number was reduced to 1000 cells/well and CellTiter-Glo reagent was added instead of MTS reagent, with luminescence as the readout.
as §1

[4] = tested on: K562 cells; assay: Inhibition of CML cell proliferation, K562; assay type: cell-based; conditions: Homo sapiens
Procedure: as §1

[5] = molecular target: T2, c-Abl (Homo sapiens, UniProt P00519); assay: Homogeneous solution-based Abl kinase assay (Lance); assay type: biochemical; conditions: read-out: c-Abl Enzyme IC50
T2 construct: purchased Panvera P3049
T2 sequence (P00519 whole entry): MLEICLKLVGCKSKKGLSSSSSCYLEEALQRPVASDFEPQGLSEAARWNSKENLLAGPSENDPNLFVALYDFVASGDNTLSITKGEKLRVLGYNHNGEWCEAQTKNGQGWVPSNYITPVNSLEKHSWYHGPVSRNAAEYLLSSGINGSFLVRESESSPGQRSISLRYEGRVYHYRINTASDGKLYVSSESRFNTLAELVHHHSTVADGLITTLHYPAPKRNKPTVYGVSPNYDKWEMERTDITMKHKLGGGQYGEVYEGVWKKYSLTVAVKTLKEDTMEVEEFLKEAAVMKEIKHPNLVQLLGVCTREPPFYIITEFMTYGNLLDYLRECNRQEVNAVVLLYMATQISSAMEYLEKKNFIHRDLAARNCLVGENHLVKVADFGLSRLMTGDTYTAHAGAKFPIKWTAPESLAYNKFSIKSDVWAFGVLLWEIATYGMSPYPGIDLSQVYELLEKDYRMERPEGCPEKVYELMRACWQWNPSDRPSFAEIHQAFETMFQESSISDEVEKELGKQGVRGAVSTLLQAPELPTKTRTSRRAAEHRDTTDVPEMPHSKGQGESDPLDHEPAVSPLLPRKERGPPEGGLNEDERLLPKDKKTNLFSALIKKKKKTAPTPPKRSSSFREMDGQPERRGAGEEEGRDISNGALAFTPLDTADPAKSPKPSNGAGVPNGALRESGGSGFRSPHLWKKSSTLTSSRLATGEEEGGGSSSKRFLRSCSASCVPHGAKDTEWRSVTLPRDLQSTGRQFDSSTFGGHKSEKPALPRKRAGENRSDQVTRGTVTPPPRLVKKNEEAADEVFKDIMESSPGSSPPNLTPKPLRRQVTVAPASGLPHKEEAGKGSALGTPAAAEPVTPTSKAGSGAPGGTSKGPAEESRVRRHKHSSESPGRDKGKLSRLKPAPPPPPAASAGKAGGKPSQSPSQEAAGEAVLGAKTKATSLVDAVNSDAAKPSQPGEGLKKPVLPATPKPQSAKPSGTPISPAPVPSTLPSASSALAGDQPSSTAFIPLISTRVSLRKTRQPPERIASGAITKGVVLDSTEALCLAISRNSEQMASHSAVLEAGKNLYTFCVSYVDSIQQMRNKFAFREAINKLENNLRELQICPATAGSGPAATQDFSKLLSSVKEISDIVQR

[6] = molecular target: T1, Src; assay: Src kinase assay, homogeneous solution-based (Lance format); assay type: biochemical; design: purchased Upstate Biotechnologies, Lake Placid, N.Y; conditions: read-out: Src enzyme IC50
[7] = tested on: K562 xenografts; assay: K562 xenografts in nude mice, tumor-free survival; assay type: in vivo
From the text: Nude mice with K562 xenografts were examined on days 11, 22, 36, and 43. Data is presented as a ratio of animals lacking detectable tumors relative to the number of animals per group. K562 tumors imbedded in Matrigel were staged in nude mice until tumors reached 200-300 mm^3.

[8] = read-out: Src enzyme IC50, ELISA format

T1 sequence (P12931 whole entry): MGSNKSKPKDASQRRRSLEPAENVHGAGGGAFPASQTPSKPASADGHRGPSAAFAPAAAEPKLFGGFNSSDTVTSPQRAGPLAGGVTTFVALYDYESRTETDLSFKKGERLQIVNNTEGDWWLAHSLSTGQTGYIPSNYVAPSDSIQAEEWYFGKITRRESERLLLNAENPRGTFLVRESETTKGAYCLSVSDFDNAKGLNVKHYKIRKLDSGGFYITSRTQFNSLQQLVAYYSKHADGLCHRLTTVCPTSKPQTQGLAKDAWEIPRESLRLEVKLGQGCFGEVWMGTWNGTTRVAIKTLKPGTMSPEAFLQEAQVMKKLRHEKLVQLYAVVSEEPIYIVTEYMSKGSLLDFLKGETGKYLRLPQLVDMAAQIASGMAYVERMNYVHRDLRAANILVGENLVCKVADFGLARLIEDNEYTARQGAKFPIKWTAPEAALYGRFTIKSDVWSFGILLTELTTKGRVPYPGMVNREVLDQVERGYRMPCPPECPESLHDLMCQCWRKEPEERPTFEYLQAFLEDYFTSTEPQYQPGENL

Compound: CCOc1cc2c(Nc3cc(OC)c(Cl)cc3Cl)c(C#N)cnc2cc1OCCCC1CCN(C)CC1 [Example 12, 4-[(2,4-Dichloro-5-methoxyphenyl)amino]-6-ethoxy-7-[3-(1-methylpiperidin-4-yl)propoxy]quinoline-3-carbonitrile]
- melting point: 148 to 151 °C

Compound: CCOc1cc2c(Nc3cc(OC)c(Cl)cc3Cl)c(C#N)cnc2cc1OCCCN1CCN(C)CC1 [Example 9, 4-[(2,4-Dichloro-5-methoxyphenyl)amino]-6-ethoxy-7-[3-(4-methylpiperazin-1-yl)propoxy]quinoline-3-carbonitrile]
- melting point: 137 to 138 °C
- IC50 [1]: 1.2 nM

Compound: CCCN1CCN(CCCOc2cc3ncc(C#N)c(Nc4cc(OC)c(Cl)cc4Cl)c3cc2OC)CC1 [Example 15, 4-[(2,4-Dichloro-5-methoxyphenyl)amino]-6-methoxy-7-[3-(4-propyl-1-piperazinyl)propoxy]-3-quinolinecarbonitrile]
- IC50 [1, 8]: 1.1 nM

Compound: COc1cc(Nc2c(C#N)cnc3cc(OCCCC4CCN(C)CC4)c(OC)cc23)c(Cl)cc1Cl [Example 7, 4-[(2,4-Dichloro-5-methoxyphenyl)amino]-6-methoxy-7-[3-(1-methylpiperidin-4-yl)propoxy]quinoline-3-carbonitrile]
- IC50 [2]: 5.8 nM
- IC50 [3]: 185 nM
- IC50 [4]: 18 nM

Compound: COc1cc(Nc2c(C#N)cnc3cc(OCCN4CCN(C)CC4)c(OC)cc23)c(Cl)cc1Cl [Example 3, 4-[(2,4-Dichloro-5-methoxyphenyl)amino]-6-methoxy-7-[2-(4-methyl-1-piperazinyl)ethoxy]-3-quinolinecarbonitrile]
- melting point: 165 to 167 °C
- IC50 [3]: 440 nM
- IC50 [4]: 48 nM

Compound: CCOc1cc2c(Nc3cc(OC)c(Cl)cc3Cl)c(C#N)cnc2cc1OCCCN1CCN(CC)CC1 [Example 11, 4-[(2,4-Dichloro-5-methoxyphenyl)amino]-6-ethoxy-7-[3-(4-ethylpiperazin-1-yl)propoxy]quinoline-3-carbonitrile]
- melting point: 127 to 130 °C

Compound: COc1cc(Nc2c(C#N)cnc3cc(OCCC4CCN(C)CC4)c(OC)cc23)c(Cl)cc1Cl [Example 6, 4-[(2,4-Dichloro-5-methoxyphenyl)amino]-6-methoxy-7-[2-(1-methylpiperidin-4-yl)ethoxy]-3-quinolinecarbonitrile]
- IC50 [2]: 14 nM
- IC50 [3]: 458 nM
- IC50 [5]: 2.9 nM
- IC50 [4]: 41 nM

Compound: COc1cc(Nc2c(C#N)cnc3cc(OCCCN4CCN(C)CC4)c(OC)cc23)c(Cl)cc1Cl [Example 1, 4-[(2,4-Dichloro-5-methoxyphenyl)amino]-6-methoxy-7-[3-(4-methyl-1-piperazinyl)propoxy]-3-quinolinecarbonitrile]
- IC50 [2]: 5 nM
- IC50 [3]: 76 nM
- IC50 [4]: 20 nM
- Tumor-free survival (animals lacking detectable tumors / animals per group) ([7]; 50 mg/kg p.o. once a day for 5 days, day 11): 6/8
- Tumor-free survival (animals lacking detectable tumors / animals per group) ([7]; 50 mg/kg p.o. once a day for 5 days, day 22): 5/8
- Tumor-free survival (animals lacking detectable tumors / animals per group) ([7]; 50 mg/kg p.o. once a day for 5 days, day 36): 4/8
- Tumor-free survival (animals lacking detectable tumors / animals per group) ([7]; 50 mg/kg p.o. once a day for 5 days, day 43): 4/8
- Tumor-free survival (animals lacking detectable tumors / animals per group) ([7]; 75 mg/kg p.o. once a day for 5 days, day 11): 7/8
- Tumor-free survival (animals lacking detectable tumors / animals per group) ([7]; 75 mg/kg p.o. once a day for 5 days, day 22): 6/8
- Tumor-free survival (animals lacking detectable tumors / animals per group) ([7]; 75 mg/kg p.o. once a day for 5 days, day 36): 6/8
- Tumor-free survival (animals lacking detectable tumors / animals per group) ([7]; 75 mg/kg p.o. once a day for 5 days, day 43): 6/8
- Tumor-free survival (animals lacking detectable tumors / animals per group) ([7]; 100 mg/kg p.o. once a day for 5 days, day 11): 8/8
- Tumor-free survival (animals lacking detectable tumors / animals per group) ([7]; 100 mg/kg p.o. once a day for 5 days, day 22): 7/8
- Tumor-free survival (animals lacking detectable tumors / animals per group) ([7]; 100 mg/kg p.o. once a day for 5 days, day 36): 7/8
- Tumor-free survival (animals lacking detectable tumors / animals per group) ([7]; 100 mg/kg p.o. once a day for 5 days, day 43): 7/8
- Tumor-free survival (animals lacking detectable tumors / animals per group) ([7]; 150 mg/kg p.o. once a day for 5 days, day 11): 8/8
- Tumor-free survival (animals lacking detectable tumors / animals per group) ([7]; 150 mg/kg p.o. once a day for 5 days, day 22): 8/8
- Tumor-free survival (animals lacking detectable tumors / animals per group) ([7]; 150 mg/kg p.o. once a day for 5 days, day 36): 8/8
- Tumor-free survival (animals lacking detectable tumors / animals per group) ([7]; 150 mg/kg p.o. once a day for 5 days, day 43): 8/8

Compound: COc1cc(Nc2c(C#N)cnc3cc(OCC4CCN(C)CC4)c(OC)cc23)c(Cl)cc1Cl [Example 5, 4-[(2,4-Dichloro-5-methoxyphenyl)amino]-6-methoxy-7-[(1-methylpiperidin-4-yl)methoxy]-3-quinolinecarbonitrile]
- IC50 [2]: 13.4 nM
- IC50 [3]: 617 nM
- IC50 [5]: 2.9 nM
- IC50 [4]: 39 nM

Compound: CCOc1cc2c(Nc3cc(OC)c(Cl)cc3Cl)c(C#N)cnc2cc1OCCN1CCN(C)CC1 [Example 13, 4-[(2,4-Dichloro-5-methoxyphenyl)amino]-6-ethoxy-7-[2-(4-methyl-1-piperazinyl)ethoxy]quinoline-3-carbonitrile]
- melting point: 141 to 143 °C

Compound: CCN1CCN(CCCOc2cc3ncc(C#N)c(Nc4cc(OC)c(Cl)cc4Cl)c3cc2OC)CC1 [Example 2, 4-[(2,4-Dichloro-5-methoxyphenyl)amino]-7-[3-(4-ethyl-1-piperazinyl)propoxy]-6-methoxy-3-quinolinecarbonitrile]
- IC50 [1, 8]: 0.77 nM

The next lines start with the values.

- melting point: 182 to 186 °C
Compound: CCOc1cc2c(Nc3cc(OC)c(Cl)cc3Cl)c(C#N)cnc2cc1OCC1CCN(C)CC1 [Example 10, 4-[(2,4-Dichloro-5-methoxyphenyl)amino]-6-ethoxy-7-[(1-methylpiperidin-4-yl)methoxy]quinoline-3-carbonitrile]

- melting point: 101 to 105 °C
Compound: CCN1CCN(CCOc2cc3ncc(C#N)c(Nc4cc(OC)c(Cl)cc4Cl)c3cc2OC)CC1 [Example 4, 4-[(2,4-Dichloro-5-methoxyphenyl)amino]-7-[2-(4-ethyl-1-piperazinyl)ethoxy]-6-methoxy-3-quinolinecarbonitrile]

- melting point: 192 to 195 °C
Compound: CCN1CCC(COc2cc3ncc(C#N)c(Nc4cc(OC)c(Cl)cc4Cl)c3cc2OC)CC1 [Example 8, 4-[(2,4-Dichloro-5-methoxyphenyl)amino]-7-[(1-ethylpiperidin-4-yl)methoxy]-6-methoxyquinoline-3-carbonitrile]

- IC50 [6]: 230 nM
Compound: CCOc1cc(Nc2c(C#N)cnc3cc(OCC4CCN(C)CC4)c(OC)cc23)c(Cl)cc1Cl [Example 22, 4-[(2,4-dichloro-5-ethoxyphenyl)amino]-6-methoxy-7-[(1-methylpiperidin-4-yl)methoxy]quinoline-3-carbonitrile]

- melting point: 174 to 176 °C
Compound: CCOc1cc2c(Nc3cc(OC)c(Cl)cc3Cl)c(C#N)cnc2cc1OCCC1CCN(C)CC1 [Example 14, 4-[(2,4-Dichloro-5-methoxyphenyl)amino]-6-ethoxy-7-[2-(1-methylpiperidin-4-yl)ethoxy]quinoline-3-carbonitrile]
